`N#Cc1cnn(-c2ccc(Cl)c(Cl)c2Cl)c1Cl` yielded a melting point of 124 to 126 °C.

The compound `CNC1Oc2cc(Cl)cc(-c3ccccc3C)c2O1` (stereo not given) came in with a melting point of over 250 °C. Next, `[N-]=[N+]=NCCCc1ccc(C(N)=O)s1`: 85 to 87 °C; `Cc1c(C)c2c(c(C)c1O)CC[C@@](C)(CCBr)O2`: 120 °C. `c1ccc(C2C3=NCCN3CCc3ccccc32)cc1` (stereo not given) returned a melting point of 122 to 123 °C.

With `CCN(CC)C(=O)c1ccc(C(=C2CC3CCC(C2)N3C)c2ccccc2)cc1`, the melting point fell in the range of 145 to 147 °C. In the case of `CN(C)CCNc1cc(Cl)nc(-c2ccccc2)n1`, the melting point is 140 to 145 °C. In the case of `COc1ccnc(CSc2nc3cc(-n4ccnc4)c(F)cc3[nH]2)c1`, the melting point fell in the range of 86 to 87 °C. For `CC(C)(C)Sc1c(CC(C)(C)C(=O)O)n(Cc2ccc(Cl)cc2)c2ccc(OCc3cscn3)cc12`, the melting point is 194 to 195 °C. In the case of `O=C(O)CCn1nc2ccc(S)nn2c1=O` it was 174 to 176 °C. Regarding `Cc1nc(-c2cccc(OC(C)C)c2)sc1C(=O)O`, the melting point lay within 177 to 179 °C.

In turn, `Cc1ccc2cccc(OCc3c(Cl)ccc(S(=O)(=O)N4CCC[C@H]4C(=O)N(C)CCNC(=O)OC(C)(C)C)c3Cl)c2n1` displayed a melting point of 88 °C. `CCCCNC1NC(=O)N(c2ccc(O)cc2)C(=O)N1`: the melting point lay in the range of 263 to 265 °C. In the case of `COc1ccccc1C(=O)c1ncccc1C` it was 98 to 100 °C; in that of `COC(=O)c1cc(-n2cnnn2)ccc1OC`, 185 to 187 °C.

With `COc1cc(C=C2CCc3c2nc2ccc(Cl)cn2c3=O)cc(OC)c1OC`, the melting point was 222 to 223 °C.

The compound `CSC1=NC(=O)C(=Cc2nc(C(C)(C)C)c(O)c(C(C)(C)C)n2)S1` registered a melting point of 205 to 208 °C. `CCOCc1cc(N2C(=O)C3=C(CCCC3)C2=O)c(F)cc1Cl` showed a melting point of 89 to 91 °C.

Consider `O=[N+]([O-])c1cnc2ccc(Oc3ccc(CNc4ncncc4Cl)cc3)nn12`, for which the melting point is 185 °C.

Turning to `COc1ccc(Cc2nc3n(-c4c(Cl)cc(Cl)cc4Cl)[nH]c(C(C)C)c-3c(=O)n2)cc1`, the melting point was 183 to 185 °C. As to `CC#CCOc1ccc(S(=O)C(C(=O)NO)c2cccc3ccccc23)cc1` (stereo not given), the melting point came out at 159 °C.

For the compound `O=[N+]([O-])c1ccc2nc(CS(=O)c3ccccn3)[nH]c2c1` (stereo not given), the melting point was in the range of 207 to 209 °C. Next, `COCCNCCc1ccc(Nc2ncc3c(n2)-c2ccccc2C(c2ccccc2C(F)(F)F)C3)cc1` (stereo not given): 61 to 62 °C; `CC1=C(C(=O)OCOC(=O)C(C)(C)C)N2C(=O)C(NC(=O)OC(C)(C)C)C2SC1` (stereo not given): 97 °C; `Cc1nn2c(=O)c(CCN3CCC(n4ccc5cc(F)ccc54)CC3)c(C)nc2s1`: 194 °C. Next, `CC1(C)CC(=O)OC1CC(Cl)(Cl)Cl` (stereo not given): 56 to 58 °C; `CN1C(=O)CCc2cc(N3C[C@H](C(N)=O)OC3=O)cc(F)c21`: 260 to 262 °C; `N#Cc1ccc2ccc(C(=O)O)cc2c1`: 279 to 283 °C. Next, `CCOC(=O)CN1C(=O)C(NC(=O)Nc2cccc(C)c2)N=C(C)c2cccc(C)c21` (stereo not given): 230 to 231 °C; `CCc1ccc(CCOc2cccc(NC3SC(=O)NC3=O)c2)nc1` (stereo not given): 140 to 142 °C. In turn, `O=C(NCc1ccc2c(c1)OCO2)c1ccc2[nH]c(=O)n(Cc3ccc(Cl)cc3)c(=O)c2c1` yielded a melting point of 290 °C. With `CCN1CC(=O)C(C#N)=C1N`, the melting point lay within 278 to 280 °C.

The compound `Cc1ccc2nc(Cl)c(Cl)nc2c1` registered a melting point of 112 to 115 °C. Next, `O=C1Nc2ccccc2C1=c1[nH]c(=O)c(=Cc2ccc(OCc3ccccc3)cn2)[nH]c1=O`: over 300 °C.

For `COC(=O)CC(=O)NC1CCCCC1`, the melting point was 77 to 78 °C. Compound `CC(C)(NC(=O)CCn1cncc1C=O)c1ccc(Cl)cc1` had a melting point of 127 to 129 °C. As for `Cc1c(C)c2c(c(C)c1N)CC(C)(CN1CC=C(c3c[nH]c4ccccc34)CC1)O2` (stereo not given), the melting point is 169 to 173 °C. Next, `COC(=O)c1ccc(CNS(C)(=O)=O)cc1S(N)(=O)=O`: 185 to 187 °C; `CN1CCN(Cc2ccc(-c3cc4ncc(C#N)c(Nc5ccc(Oc6ccccc6)cc5)c4s3)cc2)CC1`: 199 to 201 °C. In the case of `O=C(OCc1ccccc1)N1CCc2c(sc3nc(CN4C(=O)CCC4=O)c(Cl)c(-c4ccc(OCC(F)(F)F)cc4)c23)C1` it was 190 to 191 °C; in that of `CC(Br)(CBr)CS(=O)(=O)Oc1ccc([N+](=O)[O-])cc1` (stereo not given), 56 to 58 °C.

Compound `CC(CCCC(C)(C)O)C1CCC2C3=CC=C4CC(O)CCC4(C)C3CCC21C` (stereo not given) came in with a melting point of 122 to 125 °C.

`O=c1nc(N2CCC(O)CC2)sc2ncccc12` came in with a melting point of 206 to 207 °C. In turn, `Nc1ncc(-c2ccc3ncc(-c4ccc(CN5CCC(C(=O)N6CCCCC6)CC5)cc4)n3n2)cc1C(F)(F)F` showed a melting point of 263 to 266 °C. The compound `CSc1ccc(C(CC2CCCO2)C(=O)O)cc1` (stereo not given) registered a melting point of 105 to 107 °C. As to `O=C(NCCO)c1cccc(-c2cccc3nn(Cc4ccc(F)c(Cl)c4)cc23)c1`, the melting point was in the range of 177 to 178 °C. Next, `CCN(CC)CCOc1ccc(NC(=O)C#Cc2ccc(Cl)cc2Cl)cc1Cl`: 98 to 100 °C; `Nc1ccc(F)cc1CS(=O)c1nc2ccccc2[nH]1` (stereo not given): 184 to 185 °C. In the case of `O=S(=O)(c1ccc(Cl)cc1)C(c1ccc(CO)cn1)c1cc(F)ccc1F` (stereo not given) it was 151 to 152 °C; in that of `CCN(CC)CCNC(=O)c1ccccc1NC(=O)COc1ccc(Cl)cc1`, 109 °C; in that of `Cc1ccc2c(=O)nc(-c3cc(S(C)(=O)=O)cc(CCC(=O)OC(C)(C)C)n3)sc2c1`, 178 °C. As for `O=C1NC(=O)C(Nc2cccc(-c3ccc(OCc4ccc5ccccc5n4)cc3)c2)S1` (stereo not given), the melting point fell in the range of 132 to 133 °C. In the case of `COc1ccc(C(C=NO)C(C)C)cc1OC` (stereo not given) it was 89 °C; in that of `CNc1nc(-c2cccc(NC(=O)Cc3ccccc3)c2)c2cc(OC)c(OC)cc2n1`, 175 to 177 °C; in that of `Cc1ccc2ncc(CSc3ccc(N)cc3)n2c1`, 128 to 129 °C.

For `CCOP(=O)(OCC)c1ccc2c(c1)[C@@H](n1ccccc1=O)[C@H](O)C(C)(C)O2` (relative stereo), the melting point was found to be 130 °C. For `COC(=O)C(CC(C)C)NCC(=O)Nc1cccc2c1C(=O)c1c(NC(=O)CNC(CC(C)C)C(=O)OC)cccc1C2=O` (stereo not given), the melting point was 238 to 239 °C.

With `CC1(CCS)C(=O)N2CC=CC(C(=O)O)N2C1=O` (stereo not given), the melting point was 113 to 114 °C.

With `Nc1ccc(-c2ccc3nnn(Cc4ccc5ncccc5c4)c3n2)cc1`, the melting point is 190 to 193 °C. Turning to `COC(=O)c1sc(Cl)cc1N`, the melting point lay in the range of 99 to 101 °C. For the compound `c1ccc(C(c2ccccc2)N2CCN(CCOc3ccccc3-c3nc4ccccc4s3)CC2)cc1`, the melting point is 67 to 72 °C. Next, `N#Cc1c(-c2ccc(Cl)cc2)c(-c2ccc(Cl)cc2)n[nH]c1=O`: 271 to 272 °C.

In turn, `CCCCCCCCCCCCCCC1Cc2ccc(C(=O)O)cc2N1C` (racemic) came in with a melting point of 115 to 118 °C.

Take `CC(C)=C1C(=O)N(c2ccc(Cc3ccc(N)cc3)cc2)C(=O)/C1=C(\C)c1cc(-c2ccccc2)sc1C`: the melting point was 82 to 94 °C. Next, `CCOC(=O)c1[nH]c2ccc(Cl)cc2c1Sc1ccccc1`: 160 to 162 °C; `Cc1cc2c(s1)CNCC2O` (stereo not given): 120 °C; `CCC(CC)(CC)C(=O)Nc1nn(C)c2c1sc1ncccc12`: 138 to 139 °C.

For `Cn1cc(CS(C)(=O)=O)c(=O)c2ccccc21`, the melting point lay within 200 to 201 °C. Next, `CNC(=O)Cn1c(-c2ccc(C)s2)nc2cccnc21`: 213 to 216 °C; `CCCc1c(OCCCCc2nnn[nH]2)ccc(C(C)=O)c1O`: 114 to 115 °C. Compound `Nc1cccc2[nH]c3c(c12)CCN(Cc1ccccc1)CC3` displayed a melting point of 164 to 165 °C.

Compound `COc1cc2c(cc1OC)-c1c(N3CCNCC3)nc3ccccc3c1C2=O` returned a melting point of 135 to 136 °C. With `CCCn1c(CCOC)nc2c(N)nc3cc(OC4CCN(C(N)=O)CC4)ccc3c21`, the melting point was 207 to 208 °C. Next, `CCOC(=O)c1ccc2nccn2c1`: 93 to 94 °C; `CCOC(=O)c1cc2c(C)c(C)cc(N(CC)S(=O)(=O)c3cccs3)c2[nH]1`: 134 to 135 °C; `CC1CCN(c2ncc(Br)cc2C=O)C1` (stereo not given): 72 to 73 °C. As to `CCOP(=O)(Cc1ccc(N)c2ccccc12)OCC`, the melting point fell in the range of 73 to 74 °C.

On to `O=C(C#CCO)c1ccc(F)cc1`, for which the melting point is 63 °C. The compound `Cc1cccc(NC(=O)c2cc([N+](=O)[O-])ccc2NC(=O)CF)c1C` showed a melting point of 236 to 239 °C.

For the compound `CCOC(=O)Nc1cc(-c2ccccc2)n(-c2ccc(S(N)(=O)=O)cc2)n1`, the melting point fell in the range of 121 to 128 °C. In turn, `O=Cc1ccc(-c2cn3ccnc3s2)cc1` showed a melting point of 169 °C. `CCC(=O)Nc1ccnn1-c1c(Cl)cc(C(F)(F)F)cc1Cl`: the melting point was determined as 125 °C. `COC(=O)C=Cc1ccc2ccccc2n1` came in with a melting point of 85 to 86 °C. Next, `COc1ccnc2[nH]cc(-c3ccnc(N)n3)c12`: over 210 °C; `CC(=O)Nc1nc2ccnc(-c3cccc(NS(=O)(=O)c4ccc(C)cc4)c3)n2n1`: 208 to 211 °C. As for `CCCn1nc2c(N)nc3ccccc3c2c1CCCc1cc[nH]c1`, the melting point lay within 173 to 174 °C. In the case of `Cn1nc(-c2cnc(N)nc2-c2cccc(O)c2)ccc1=O`, the melting point turned out to be 285 °C. In the case of `CC(C)(C)c1cccc(S(=O)(=O)Nc2cc(C(F)(F)F)ccc2I)c1` it was 134 °C; in that of `Cc1cc(-c2noc(C(F)(F)F)n2)cc(C)c1OCCCc1ccc(CO)nc1`, 92 to 94 °C; in that of `Cc1ccc(COC(C)CN(O)C(N)=O)s1` (stereo not given), 84 to 85 °C.

The values are drawn from a melting point compilation (Tetko et al.; mined from patent text by program, amines drawn as free bases though some values may be those of a salt).
